Test results published in patent US11261210B2, “Glycosylated antitumor ether lipids as novel cancer stem cell cytotoxic agents” (UNIVERSITY OF MANITOBA, priority 2012, dated 2022).

Experiments:
[1] = tested on: JIMT1 stem cell tumorspheres; test: Viability of JIMT1 stem cell tumorspheres (MTS assay); assay type: cell-based, human; settings: 6 days
Method: FIG. 8. Effect of β-O-Gln, α-O-Gln, β-C-Gln and ET-18-OCH3 on the viability of JIMT1 stem cell tumorspheres. BT-474 cancer stem cells were grown for 7 days in ultra low adhesion 6-well plates. The tumorspheres formed were harvested, trypsinised and cell numbers were determined. Equal numbers of cells were dispersed into 48-well non-treated plates in mammocult medium and incubation was under static conditions. Wells with only medium but no cells were treated in an identical manner to serve as blanks. After spheres were formed, O-Gln, C-Gln or ET-18-OCH3 (0, 10, 20, 30 μM) were added and incubation was for a total of 6 days. At the end of the incubation, the MTS reagent was added to each well and the plates were mixed in a nutator in a 5% CO2 incubator for 4 h. The absorbance of each well was read at 470 nm. The results are the means±standard deviation of 4 independent determinations.
(§1) Cell viability assay: Cell viability was determined by the Cell Titre 96 Aqueous One solution proliferation assay ((MTS assay; Promega) according to the instructions of the manufacturer.
The viability of cells in spheroids incubated with 20 or 30 μM ET-18-OCH3 was between 30-40% of controls.

[2] = tested on: BT-474 stem cell tumorspheres; test: Viability of BT-474 stem cell tumorspheres (MTS assay); assay type: cell-based, human; settings: for Viability (% 0f control) / loss of viability / toxicity against the cancer stem cells: 6 days; for Viability (% 0f control): Table 2; for toxicity against the cancer stem cells: BT-474 spheroids
Method: FIG. 6. Effect of β-O-Gln, α-O-Gln, β-C-Gln and ET-18-OCH3 on the viability of BT-474 stem cell tumorspheres. BT-474 cancer stem cells were grown for 7 days in ultra low adhesion 6 well plates. The tumorspheres formed were harvested, trypsinised and cell numbers were determined. Equal numbers of cells were dispersed into 48-well plates in mammocult medium and incubation was under static conditions. Wells with only medium but no cells were treated in an identical manner to serve as blanks. After spheres were formed, β-O-Gln, α-O-Gln, β-C-Gln or ET-18-OCH3 (0, 10, 20, 30 μM) were added and incubation was for a total of 6 days. At the end of the incubation, the MTS reagent was added to each well and the plates were rotated on a Nutator mixer in a 5% CO2 incubator for 4 h. The absorbance of each well was read at 470 nm. The results are the means±standard deviation of 4 independent determinations.
as §1
The viability of the material at the end of the incubation was determined using the MTS assay. […] In cells incubated with 10 μM of β-C-Gln, 90% of the cells were not viable. […] In contrast, in experiments with ET-18-OCH3, 10 or 20 μM ET-18-OCH3 had little effect on the viability of BT-474 spheroids and at a concentration of 30 μM viability was around 45% relative to controls. The results of the integrity studies correlate well with the viability studies.
We also investigated the effect of α-O-Galn, β-O-Galn or α-O-Mann on the viability of BT-474 spheroids. The spheroids were incubated with the compounds for 6 days and the viability was assessed by the MTS assay. […] Viability was down to around 10% at 10 μM concentration of the compound. […] At a concentration of 30 μM a significant proportion (26-32%) of the BT-474 cancer stem cells were still viable. The cytotoxic efficacy of GAELs is dependent on the type of sugar moiety and the anomeric form in some instances.

[3] = tested on: cancer cell lines; settings: Xu et al., ChemMedChem in press; cited from earlier work
[4] = tested on: cancer stem cells; test: Tumorsphere formation by freshly sorted cancer stem cells; assay type: cell-based, human; settings: added to freshly sorted cancer stem cells, 10 μM and above, 6 days
From the text: Breast cancer stem cell enriched cell population was obtained by staining breast cancer cell lines BT-474 and JIMT-1 for aldehyde dehydrogenase 1 (ALDH1) using the assay kit from Stem Cell Technologies (Vancouver BC, Canada) according to the instructions of the manufacturer with the appropriate controls. BT-474 is a ductal carcinoma cell line (Lasfargues E Y, Coutinho W G, Dion A S (1979) A human breast tumor cell line (BT-474) that supports mouse mammary tumor virus replication. In Vitro 15, 723-729) while JIMT-1 is a carcinoma cell line that is resistant to herceptin (Tanner M, Kapanen A J, Junttila T, Raheem O, Grenman S, Elo J, Elenius K, Isola J (2004). Characterization of a novel cell line established from a patient with herceptin-resistant breast cancer. Mol Cancer Ther 3, 1585-1592). Following the staining, the cells stained for ALDH1 were sorted from the bulk population by flow cytometry on a 4 laser MoFloXPP high speed/pressure cell sorter. The cells were pelleted by centrifugation, resuspended in supplemented Mammocult medium (Stem Cell Technologies) and dispersed into ultra-low adhesive 6-well plates or 35 mm dishes for 7 days to allow the formation of spheroids (mammospheres). After 7 days, the spheres were separated from single cells (dead non-stem cells) by sieving the contents of the well through a […] nylon cell strainer (BD Falcon). The spheres retained in the sieve are washed with Hanks buffer and subsequently trypsinised to obtain a single cell suspension of cancer stem cells. The cell numbers were determined with a Coulter ZM counter and the cells were seeded into the appropriate low adhesion tissue culture ware for various studies.
AEL solutions in ethanol were diluted into supplemented mammocult medium generally at twice the desired final concentration. A volume equal to that in the wells was added to dilute the drug to the desired concentration in each well. Subsequently any further addition of drug to the wells, utilized AEL solution prepared at the desired concentration. […]

[5] = Generation of large acidic vacuoles; assay type: cell-based
From the text: Autophagy 5, 835-84663). Furthermore an active endocytosis pathway was essential for GAEL activity (Samadder P, Byun H-S, Bittman R, Arthur G (2011) The endocytosis pathway is required for the cytotoxic effects of glycosylated antitumor ether lipids, Anticancer Res 31, 3809-3818). The generation of the large acidic vacuoles is a hallmark of this non-apoptosis death pathway induced by GAELs.

[6] = tested on: BT-474 cancer stem cells; test: BT-474 cancer stem cell spheroid formation; assay type: cell-based, human; settings: BT474 cancer stem cells, FIG. 1B
Method: FIG. 1. A. Effect of β-C-Gln (β-AC1) on BT-474 cancer stem cell spheroid formation. BT-474 cancer stem cells were obtained by staining BT474 cells for ALDH1 and sorting the stained from unstained cells by flow cytometry. The ALDH1 stained cells were grown in ultra-low adhesion 6-well plates in mammocult medium for 7 days. The spheroids were isolated and trypsinised to generate single cells. The cells were then seeded for 2 days in ultra-low adhesion 6-well plates, and subsequently incubated in the absence or presence of C-Gln for up to 12 days. The media was replenished after 6 days. B. Effect of β-O-Gln (β-AO1), α-O-Gln (α-AO1), or ET-18-OCH3 on BT-474 cancer stem cell spheroid formation.
Breast cancer stem cell enriched cell population was obtained by staining breast cancer cell lines BT-474 and JIMT-1 for aldehyde dehydrogenase 1 (ALDH1) using the assay kit from Stem Cell Technologies (Vancouver BC, Canada) according to the instructions of the manufacturer with the appropriate controls. […] The cell numbers were determined with a Coulter ZM counter and the cells were seeded into the appropriate low adhesion tissue culture ware for various studies. […]

[7] = tested on: BT474 cancer stem cells; test: Trypan blue dye exclusion viability of BT474 cancer stem cells; assay type: cell-based, human; settings: BT474 cancer stem cells incubated with compound
Method: Trypan blue dye exclusion assay using the TC10 automated cell counter (BioRad) was also used for some studies.
We investigated the effects of the GAELs and the ALPET-18-OCH3 on the ability of the cancer stem cells to form tumorspheres. […] This was a concentration dependent event and at concentrations greater than 10 μM spheroid formation was completely disrupted.

[8] = tested on: JIMT-1 stem cell spheroids; test: Morphology of JIMT-1 stem cell spheroids; assay type: cell-based, human; settings: 6 days, FIG. 7B
Method: FIG. 7. A. Effect of β-O-Gln, β-C-Gln or ET-18-OCH3 on morphology of JIMT-1 stem cell spheroids. B. Effect of β-O-Gln, α-O-Gln or ET-18-OCH3 on morphology of JIMT-1 stem cell spheroids. JIMT-1 cancer stem cells were grown for 7 days in ultra low adhesion 6 well plates. The tumorspheres formed were harvested, trypsinised and cell numbers were determined. Equal numbers of cells were dispersed into 48-well non-treated plates in mammocult medium and incubated in a CO2 incubator under static conditions. After spheres were formed, O-Gln, C-Gln or ET-18-OCH3 were added (0, 10, 20 and 30 μM) and incubation was for a total of 6 days with media supplementation after 3 days. Images for FIG. 7A were taken at day 0 and after 72 h following addition of the compounds. Images for FIG. 7B were taken after 6 days incubation with the compounds.
The above studies were repeated with JIMT-1 spheroids.

With CCCCCCCCCCCCCCCCCCOCC(COP(=O)([O-])OCC[N+](C)(C)C)OC (stereo not shown) [ET-18-OCH3, 1-O-octadecyl-2-O-methyl-glycerophosphocholine, reference compound] the “viability, % of controls” value ([1]; 20 or 30 μM) was 30-40 % of controls, the cytotoxicity at 10 µM ([1]; Homo sapiens, JIMT-1, 144 h, 10 μM, read-out: loss of viability) was 40% and the viability at 30 µM ([2]; Homo sapiens, BT-474, 144 h, read-out: viability relative to controls) was ~45%.
In the case of CCCCCCCCCCCCCCCCOC[C@H](CS[C@H]1O[C@H](CO)[C@@H](O)[C@H](O)[C@H]1N)OC [α-AS2, 1-O-Hexadecyl-2-O-methyl-3-S-(2′-amino-2′-deoxy-α-D-glucopyranosyl)-sn-glycerol], the “cytotoxicity compared to β-O-Gln (β-AO1)” value [3] is listed as “not as active as β-O-Gln”.
With CCCCCCCCCCCCCCCCOC[C@H](COC1O[C@H](CO)[C@H](O)[C@H](O)[C@H]1N)OC (stereo partly drawn) [α-O-Galn, 1-O-Hexadecyl-2-O-methyl-3-O-(2′-amino-2′-deoxy-D-galactopyranosyl)-sn-glycerol] the spheroid formation [4] was “unable to form spheroids”, the “Viability (% 0f control)” value ([2]; 10 μM) was “around 10 % 0f control” and the “Viability (% 0f control)” value ([2]; 10 μM, listed as α-Galn) was 9.64 % 0f control. The “Viability (% 0f control)” value ([2]; 20 μM, listed as α-Galn) was 0 % 0f control, the “Viability (% 0f control)” value ([2]; 30 μM, listed as α-Galn) was 0 % 0f control and the loss of viability ([2]; 20 or 30 μM) was “Complete loss of viability”. For the same compound, the “toxicity against the cancer stem cells” value [2] was “quite toxic” and the “generation of large acidic vacuoles” value [5] was “generation of these vacuoles”.
With CCCCCCCCCCCCCCCCOC[C@H](COC1O[C@H](CO)[C@@H](O)[C@H](O)[C@H]1N)OC (stereo partly drawn) [α-O-Gln, 1-O-Hexadecyl-2-O-methyl-3-O-(2′-amino-2′-deoxy-D-glucopyranosyl)-sn-glycerol] the spheroid formation [6] was “unable to form spheroids”, the spheroid formation [4] was “unable to form spheroids” and the loss of viability ([1]; 10 μM) was 90%. For the same compound, the loss of viability ([1]; 20 or 30 μM) was “Complete loss of viability”, the loss of viability ([2]; 10 μM) was “about 60%” and the loss of viability ([2]; 20 or 30 μM) was “total loss of viability”. The “generation of large acidic vacuoles” value [5] was “generation of these vacuoles”, the “viability (trypan dye exclusion)” value [7] was “not viable” and the spheroid integrity [8] was “complete disintegration of the spheroids”. For the same compound, the “cytotoxicity compared to β-O-Gln (β-AO1)” value [3] was “superior activity”.
For CCCCCCCCCCCCCCCCOCC(CO[C@H]1O[C@H](CO)[C@@H](O)[C@H](O)[C@@H]1N)OC (stereo partly drawn) [α-O-Mann], the “Viability (% 0f control)” value ([2]; 10 μM) was 134.3 % 0f control, the “Viability (% 0f control)” value ([2]; 20 μM) was 58.84 % 0f control and the “Viability (% 0f control)” value ([2]; 30 μM, listed as α-Mann) was 25.9 % 0f control. For the same compound, the “toxicity against the cancer stem cells” value [2] was “not as active as α-O-Galn”.
In the case of CCCCCCCCCCCCCCCCOC[C@H](CS[C@@H]1O[C@H](CO)[C@@H](O)[C@H](O)[C@H]1N)OC [β-AS1, 1-O-Hexadecyl-2-O-methyl-3-S-(2′-amino-2′-deoxy-β-D-glucopyranosyl)-sn-glycerol], the “cytotoxicity compared to β-O-Gln (β-AO1)” value [3] is given as “not as active as β-O-Gln”.
For CCCCCCCCCCCCCCCCOC[C@H](COC1O[C@H](CO)[C@H](O)[C@H](O)[C@H]1N)OC (stereo partly drawn) [β-O-Galn, 1-O-Hexadecyl-2-O-methyl-3-O-(2′-amino-2′-deoxy-D-galactopyranosyl)-sn-glycerol], the “Viability (% 0f control)” value ([2]; 10 μM, listed as β-Galn) was 153.7 % 0f control, the “Viability (% 0f control)” value ([2]; 20 μM, listed as β-Galn) was 48.0 % 0f control and the “Viability (% 0f control)” value ([2]; 30 μM, listed as β-Galn) was 32.16 % 0f control. For the same compound, the “toxicity against the cancer stem cells” value [2] was “not as active as α-O-Galn”.
